Assay results as given in BindingDB's records for doi:10.1021/acsmedchemlett.0c00495 (Janssen Research & Development, 2020).

Target: Cannabinoid receptor 2 (Homo sapiens, UniProt P34972)
Test: Inverse agonist activity at human CB2 receptor expressed in HEK293 cells assessed as forskolin-stimulated cAMP accumulation after 30 mins by HTRF assay

Cannabinoid receptor 2, sequence (P34972 whole entry): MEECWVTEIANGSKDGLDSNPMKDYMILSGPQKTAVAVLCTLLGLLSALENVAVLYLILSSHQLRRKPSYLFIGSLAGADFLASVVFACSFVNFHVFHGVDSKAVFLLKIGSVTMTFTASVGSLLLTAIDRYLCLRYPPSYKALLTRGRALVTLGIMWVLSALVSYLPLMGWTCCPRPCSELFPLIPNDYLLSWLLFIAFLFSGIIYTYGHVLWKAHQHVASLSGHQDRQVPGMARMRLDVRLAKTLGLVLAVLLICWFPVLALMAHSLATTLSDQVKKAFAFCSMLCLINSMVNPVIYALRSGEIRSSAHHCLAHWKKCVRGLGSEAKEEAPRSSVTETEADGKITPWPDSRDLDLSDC

With `Nc1nc(NC2CCN(S(=O)(=O)C(F)(F)F)CC2)c2cc(C(c3ccc(Cl)cc3)c3ccc(Cl)cc3)ccc2n1` [US9682955, 107] the EC50 was over 10 µM.
